According to ChEMBL document CHEMBL1201862, “PubChem BioAssay data set” (2004):
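These data come from cells grown in 96-well plates and exposed to compound for 48 hours at five concentrations. GI50 = concentration required for 50% inhibition of growth.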 The source made the active and inactive calls. Cut-off read from the data, not from the text of the source: active = GI50 up to about 1.1 µM and inactive = higher.

Key:
Assay in all cases: DTP human tumour cell line panel, 48 h
MOLT-4 = tested on: MOLT-4
Hs-578T = tested on: Hs-578T
786-0 = tested on: 786-0
SK-MEL-5 = tested on: SK-MEL-5
OVCAR-8 = tested on: OVCAR-8
OVCAR-3 = tested on: OVCAR-3
HT-29 = tested on: HT-29
UO-31 = tested on: UO-31
HL-60 = tested on: HL-60
NCI/ADR-RES = tested on: NCI/ADR-RES
OVCAR-4 = tested on: OVCAR-4
HOP-62 = tested on: HOP-62
T47D = tested on: T47D
EKVX = tested on: EKVX
SF-268 = tested on: SF-268
SR = tested on: SR
SNB-19 = tested on: SNB-19
RPMI-8226 = tested on: RPMI-8226
MDA-MB-231 = tested on: MDA-MB-231
CAKI-1 = tested on: CAKI-1
U-251 = tested on: U-251
COLO 205 = tested on: COLO 205
KM12 = tested on: KM12
K562 = tested on: K562
OVCAR-5 = tested on: OVCAR-5
TK-10 = tested on: TK-10
CCRF-CEM = tested on: CCRF-CEM
SK-MEL-2 = tested on: SK-MEL-2
PC-3 = tested on: PC-3
Malme-3M = tested on: Malme-3M
SW-620 = tested on: SW-620
LOX IMVI = tested on: LOX IMVI
NCI-H226 = tested on: NCI-H226
SF-539 = tested on: SF-539
M14 = tested on: M14
SK-MEL-28 = tested on: SK-MEL-28
SF-295 = tested on: SF-295
SK-OV-3 = tested on: SK-OV-3
SN12C = tested on: SN12C
A549 = tested on: A549
HCT-116 = tested on: HCT-116
IGROV-1 = tested on: IGROV-1
MCF7 = tested on: MCF7
UACC-257 = tested on: UACC-257
A498 = tested on: A498
MDA-MB-435 = tested on: MDA-MB-435
NCI-H460 = tested on: NCI-H460
DU-145 = tested on: DU-145
BT-549 = tested on: BT-549
UACC-62 = tested on: UACC-62
ACHN = tested on: ACHN
HCT-15 = tested on: HCT-15
NCI-H522 = tested on: NCI-H522
NCI-H23 = tested on: NCI-H23
MDA-N = tested on: MDA-N
RXF 393 = tested on: RXF 393
HOP-92 = tested on: HOP-92
SNB-75 = tested on: SNB-75

Measured: GI50

COc1cc2c3c(c1)c1cc(OC)c(OC)cc1c[n+]3CC2
active: SF-268 0.0175 µM | Malme-3M 0.991 µM | NCI-H522 0.927 µM
> 50 µM: HCT-15
inactive: MOLT-4 2 µM | Hs-578T 3.1 µM | 786-0 1.61 µM | SK-MEL-5 13.6 µM | OVCAR-8 4.32 µM | OVCAR-3 12.5 µM | HT-29 23 µM | UO-31 > 100 µM | HL-60 > 50 µM | NCI/ADR-RES > 50 µM | OVCAR-4 15 µM | HOP-62 5.73 µM | T47D 5.35 µM | EKVX 8.51 µM | SR 21.8 µM | SNB-19 2.49 µM | RPMI-8226 18.7 µM | MDA-MB-231 > 50 µM | CAKI-1 30.6 µM | U-251 2.22 µM | COLO 205 7.29 µM | KM12 3.77 µM | K562 10 µM | OVCAR-5 > 50 µM | TK-10 > 50 µM | CCRF-CEM > 50 µM | SK-MEL-2 31.8 µM | PC-3 25.8 µM | SW-620 > 50 µM | LOX IMVI 28.7 µM | NCI-H226 14.2 µM | SF-539 6.12 µM | M14 > 50 µM | SK-MEL-28 22.8 µM | SF-295 15.5 µM | SK-OV-3 > 50 µM | SN12C 1.53 µM | A549 > 50 µM | HCT-116 8.36 µM | IGROV-1 17.5 µM | MCF7 15.8 µM | UACC-257 18.1 µM | A498 > 50 µM | MDA-MB-435 25.8 µM | NCI-H460 4.32 µM | DU-145 31.8 µM | BT-549 2.63 µM | UACC-62 19.1 µM | ACHN > 50 µM | NCI-H23 7.29 µM | MDA-N 24.8 µM | RXF 393 27.9 µM

c1ccc(N/N=N/c2ccc(-c3nc4ccccc4[nH]3)cc2)nc1
15.8 µM: HCT-15
inactive: MOLT-4 4.43 µM | Hs-578T 19.8 µM | 786-0 14.4 µM | SK-MEL-5 27.6 µM | OVCAR-8 21.7 µM | OVCAR-3 15 µM | HT-29 21 µM | UO-31 19.4 µM | HL-60 50.8 µM | NCI/ADR-RES 30.3 µM | OVCAR-4 17.8 µM | HOP-62 16.6 µM | T47D 12.7 µM | EKVX 17.3 µM | SR 2.12 µM | SNB-19 20.8 µM | RPMI-8226 2.05 µM | MDA-MB-231 12.6 µM | CAKI-1 27.9 µM | U-251 16.5 µM | COLO 205 27 µM | KM12 13.6 µM | K562 7.31 µM | OVCAR-5 26.3 µM | TK-10 19.6 µM | CCRF-CEM 2.64 µM | SK-MEL-2 27 µM | PC-3 18.1 µM | Malme-3M 15.6 µM | SW-620 17.8 µM | LOX IMVI 18.5 µM | NCI-H226 26.3 µM | SF-539 17.1 µM | HOP-92 17.3 µM | M14 37.4 µM | SK-MEL-28 20.7 µM | SF-295 19.2 µM | SK-OV-3 14.7 µM | SN12C 15.3 µM | A549 19.2 µM | HCT-116 7.11 µM | IGROV-1 13.2 µM | MCF7 11.3 µM | UACC-257 23.2 µM | A498 > 100 µM | MDA-MB-435 21.6 µM | NCI-H460 15.2 µM | DU-145 13.2 µM | SNB-75 21.6 µM | BT-549 37.5 µM | ACHN 16.6 µM | NCI-H522 16.8 µM | NCI-H23 31.8 µM | MDA-N 16.7 µM | RXF 393 16.4 µM

COc1ccc(C(=O)N/N=C2\C(=O)c3c(C)cc(C)cc3CC2(C)C)cc1
inactive: MOLT-4 11.5 µM | Hs-578T 16.3 µM | 786-0 18.6 µM | SK-MEL-5 16.7 µM | OVCAR-8 20.9 µM | OVCAR-3 15.6 µM | HT-29 18.4 µM | HL-60 18.3 µM | NCI/ADR-RES 22 µM | OVCAR-4 27 µM | HOP-62 18 µM | T47D 13.7 µM | EKVX 22.5 µM | SF-268 17.3 µM | SR 18.5 µM | SNB-19 27.4 µM | RPMI-8226 17.1 µM | MDA-MB-231 19.7 µM | CAKI-1 36 µM | U-251 17.1 µM | COLO 205 21.8 µM | KM12 19.1 µM | K562 16.7 µM | OVCAR-5 21 µM | TK-10 54.2 µM | CCRF-CEM 24.3 µM | SK-MEL-2 18.9 µM | PC-3 22.2 µM | Malme-3M 14.9 µM | SW-620 20.8 µM | LOX IMVI 17.7 µM | NCI-H226 22.3 µM | SF-539 20.5 µM | HOP-92 14.9 µM | M14 19.8 µM | SK-MEL-28 19.7 µM | SF-295 19.6 µM | SK-OV-3 29.2 µM | SN12C 18.4 µM | A549 19.4 µM | HCT-116 17.1 µM | IGROV-1 16.1 µM | MCF7 16.6 µM | UACC-257 29.8 µM | A498 19.9 µM | MDA-MB-435 17.9 µM | NCI-H460 25.6 µM | DU-145 24.2 µM | SNB-75 21.4 µM | BT-549 18.6 µM | UACC-62 15.1 µM | ACHN 24.1 µM | NCI-H522 15.3 µM | NCI-H23 29.5 µM | MDA-N 19.3 µM | RXF 393 16.6 µM
22.8 µM: HCT-15

COC(=O)C1=C(O)C(C(=O)OC)[C@@]2(O)[C@@H](C(=O)OC)C(c3ccc(OC(=O)/C(=C/c4ccc(Cl)cc4)c4ccc(Cl)cc4)cc3)C[C@@H]1[C@@H]2C(=O)OC (stereo partly specified)
18.5 µM: HCT-15
inactive: MOLT-4 4.45 µM | Hs-578T > 100 µM | 786-0 22 µM | SK-MEL-5 26.1 µM | OVCAR-8 41 µM | OVCAR-3 51.1 µM | HT-29 38.5 µM | UO-31 12.6 µM | HL-60 34.6 µM | NCI/ADR-RES 57.7 µM | OVCAR-4 20.6 µM | HOP-62 > 100 µM | T47D 18.7 µM | EKVX 33.8 µM | SF-268 99.3 µM | SR 9.06 µM | SNB-19 61.9 µM | MDA-MB-231 19.1 µM | CAKI-1 15.9 µM | U-251 24.4 µM | COLO 205 24 µM | KM12 37.8 µM | K562 22.3 µM | OVCAR-5 30.1 µM | TK-10 16.1 µM | CCRF-CEM 6.3 µM | SK-MEL-2 14.3 µM | PC-3 24.1 µM | Malme-3M 55.7 µM | SW-620 31.1 µM | LOX IMVI 14.3 µM | NCI-H226 19.5 µM | SF-539 12.2 µM | HOP-92 19.5 µM | M14 15.6 µM | SK-MEL-28 > 100 µM | SF-295 29.8 µM | SK-OV-3 > 100 µM | SN12C 25.9 µM | A549 77.4 µM | HCT-116 11.3 µM | IGROV-1 20.2 µM | MCF7 20.6 µM | UACC-257 52.6 µM | A498 > 100 µM | MDA-MB-435 23.5 µM | NCI-H460 14.4 µM | DU-145 39 µM | SNB-75 28.3 µM | BT-549 95.7 µM | UACC-62 7.29 µM | ACHN 32.4 µM | NCI-H522 36.6 µM | NCI-H23 50.1 µM | MDA-N 17.5 µM | RXF 393 11.2 µM
